Test system: Human gastric cancer cells MGC-803
Experiment: In vivo efficacy test of 17bNF Crystal Form 0 and Form II, MGC-803 xenograft in nude mice
Settings: oral, once a day, six times every week until the 15th day; start at average tumor volume 1450 mm^3; FIG. 42A-C
Description: Human gastric cancer cells MGC-803 were subcutaneously planted into the armpit of nude mice. The test drugs 17bNF-0 and 17bNF-II were separately administrated orally when the average tumor volume reached 1450 mm^3. Drugs were given once a day, six times every week until the 15th day. CMC (drug-carrier; 0.5%) was used as the blank control. Tumor volumes were measured once about every three days (FIG. 42A), and the nude mice were photographed on the 22th day (FIG. 42B), and the nude mice were sacrificed on the 22th day. The tumors were dissected out from the nude mice and photographed (FIG. 42C).

COC1C(O)[C@H](O[C@H]2CC[C@@]3(C)[C@H](CC[C@@H]4[C@@H]3CC[C@]3(C)[C@@H](C5=CC(=O)OC5)CC[C@]43O)C2)OC(C)[C@@H]1O (stereo partly drawn) [17bNF-0, (3β, 5β)-3-[(6-deoxy-3-O-methyl-α-L-glucopyranosyl)oxy]-14-hydroxycard-20(22)-enolide]
anticancer activities in nude mice (tumor volume): very high anticancer activities

Reference: patent publication US11091510B2, “Crystal characteristics, preparation processes and anticancer applications of 17beta-neriifolin crystal forms” (EnKang Pharmaceuticals (Guangzhou), Ltd., priority 2017, dated 2021)
